The subject of one data set is Norovirus. In words: Antiviral activity against Norovirus infected in human HG23 cells assessed as inhibition of viral replication after 24 hrs. The class given is functional. To be noted: HG23, 24 h, read-out: ED50 (the source's name).
Data set [1] is described as follows: Cytotoxicity against human HG23 cells after 48 hrs. To be noted: read-out: TD50. The class given is cell-based.
The nature of data set [2]: Therapeutic index, ratio of TD50 for HG23 cells to ED50 for Norovirus infected in human HG23 cells. The class given is cell-based. As to conditions: read-out: Ratio TD50/ED50.

Where only a bound is given, the exact number is not on record here.

On to `O=C(N1CCOCC1)N1CCN(Cc2ccccc2)CC1`, for which the EC50 in the data set with Norovirus was more than 20 µM. Same read-out and setting: for `O=C(c1cccc(Cl)c1)N1CCN(Cc2ccccc2)CC1` the value was more than 20 µM. On the same count and under the same terms, for `O=C1CC(C(=O)N2CCN(Cc3ccccc3)CC2)CN1Cc1ccccc1` (stereo not drawn) the value was more than 20 µM. As for `N#Cc1ccc(S(=O)(=O)N2CCN(Cc3cccc(Oc4ccccc4)c3)CC2)cc1`, in data set [1], the CC50 at 48 h worked out at 119 µM. For the same compound, the EC50 in the data set with Norovirus was 12.5 µM. For `O=C(c1ccccc1Oc1ccccc1)N1CCN(Cc2ccccc2)CC1`, in that order: 18.5 µM and 8.2 µM. For `O=C(c1cccc(Oc2ccccc2)c1)N1CCN(Cc2ccccc2)CC1`, in that order: 11.4 µM and 2.8 µM. As to `O=C(c1ccc(Oc2ccccc2)cc1)N1CCN(Cc2ccccc2)CC1`, in the data set on Norovirus, the EC50 is more than 20 µM. Still for that read-out and setting: next, `O=C(c1cccc(F)c1)N1CCN(Cc2ccccc2)CC1`: more than 20 µM. Take `CCCOc1ccc(C(=O)N2CCN(Cc3ccccc3)CC2)cc1`: in data set [1], the CC50 at 48 h stood at 95.3 µM. Moreover, in the data set with Norovirus, the EC50 was determined as 7.8 µM.

Take `COc1ccc(CC(=O)N2CCN(Cc3ccccc3)CC2)cc1`: the EC50 with Norovirus was more than 20 µM.

Take `COc1ccc(Cn2cc(C(=O)N3CCN(Cc4ccccc4)CC3)nn2)cc1`: the CC50 at 48 h in data set [1] was determined as 62.5 µM. In addition, the EC50 with Norovirus was found to be 8.5 µM. Regarding `O=C(c1cn(Cc2cccc(F)c2)nn1)N1CCN(Cc2ccccc2)CC1`, the EC50 with Norovirus was more than 20 µM.

With `O=C(c1cn(Cc2ccc(F)cc2)nn1)N1CCN(Cc2ccccc2)CC1`, the EC50 in the data set on Norovirus is more than 20 µM. On the same count and under the same terms, for `O=C(c1cn(CSc2ccccc2)nn1)N1CCN(Cc2ccccc2)CC1` the value was more than 20 µM; for `COC(=O)c1ccc(Cn2cc(C(=O)N3CCN(Cc4ccccc4)CC3)nn2)cc1`, more than 20 µM.

In the case of `COc1ccc(CN2CC(C(=O)N3CCN(Cc4ccccc4)CC3)CC2=O)cc1` (stereo not drawn), in data set [1], the CC50 at 48 h stood at 155 µM. Moreover, in the data set on Norovirus, the EC50 worked out at 7.2 µM.

Consider `O=C1CC(C(=O)N2CCN(Cc3ccccc3)CC2)CN1CCc1ccccc1` (stereo not drawn), for which, in the data set with Norovirus, the EC50 is more than 20 µM. Same read-out and setting: next, `O=C1CC(C(=O)N2CCN(Cc3ccccc3)CC2)CN1Cc1ccco1` (stereo not drawn): more than 20 µM. For the compound `O=C(c1ccc(Oc2ccccc2)cc1)N1CCN(Cc2cccc(Oc3ccccc3)c2)CC1`, the CC50 at 48 h in data set [1] is 23.5 µM. Also, the EC50 in the data set on Norovirus amounted to 3.8 µM.

`O=C(c1cccc(Oc2ccccc2)c1)N1CCN(Cc2cccc(Oc3ccccc3)c2)CC1`: the CC50 at 48 h in data set [1] came to 15.6 µM. Moreover, in the data set with Norovirus, the EC50 was 5.5 µM.

For the compound `O=C(c1ccc(O)cc1)N1CCN(Cc2cccc(Oc3ccccc3)c2)CC1`, the EC50 in the data set on Norovirus was more than 20 µM. Same read-out and setting: next, `CC(C)Oc1ccc(C(=O)N2CCN(Cc3cccc(Oc4ccccc4)c3)CC2)cc1`: more than 20 µM; `N#Cc1ccc(C(=O)N2CCN(Cc3cccc(Oc4ccccc4)c3)CC2)cc1`: more than 20 µM. With `COc1ccc(C(=O)N2CCN(Cc3cccc(Oc4ccccc4)c3)CC2)cc1`, in data set [1], the CC50 at 48 h stood at 25.4 µM. Besides, the EC50 in the data set on Norovirus was found to be 4.5 µM. In the case of `O=C(Cc1ccc(Cl)cc1)N1CCN(Cc2cccc(Oc3ccccc3)c2)CC1`, the EC50 with Norovirus is more than 20 µM. For `c1ccc(Oc2cccc(CN3CCN(Cc4cccc(Oc5ccccc5)c4)CC3)c2)cc1`, the CC50 at 48 h in data set [1] stood at 75.4 µM. Besides, the EC50 in the data set with Norovirus is 5.6 µM.

Turning to `Oc1cccc(CN2CCN(Cc3cccc(Oc4ccccc4)c3)CC2)c1`, in the data set with Norovirus, the EC50 was more than 20 µM. `CC(C)Oc1ccc(CN2CCN(Cc3cccc(Oc4ccccc4)c3)CC2)cc1`: the CC50 at 48 h in data set [1] is 31.5 µM. In addition, the EC50 with Norovirus worked out at 8.5 µM. For the compound `CCCCS(=O)(=O)N1CCN(Cc2cccc(Oc3ccccc3)c2)CC1`, the CC50 at 48 h in data set [1] was 121 µM. The selectivity ratio in data set [2] was 18. In the data set with Norovirus, the EC50 was 6.7 µM. As to `O=C(c1ccco1)N1CCN(Cc2ccccc2)CC1`, the EC50 with Norovirus was more than 20 µM.

These data come from ChEMBL document CHEMBL1932937, “Inhibition of noroviruses by piperazine derivatives” (Bioorg Med Chem Lett, 2012).
